ChEMBL document CHEMBL1201862, “PubChem BioAssay data set” (2004)
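Following 48 hours of exposure in 96-well plates, responses at five concentrations were used to interpolate endpoints linearly. Abbreviation: GI50, concentration required for 50% inhibition of growth.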 Active and inactive are the calls of the source. Cut-off read from the data, not from the text of the source: active = GI50 up to about 1.1 µM and inactive = higher.

Tests used:
Experiment in all cases: growth of human tumour cells (NCI), 48 h
HCT-15 = tested on: HCT-15
ACHN = tested on: ACHN
IGROV-1 = tested on: IGROV-1
SK-MEL-2 = tested on: SK-MEL-2
MDA-MB-435 = tested on: MDA-MB-435
HCT-116 = tested on: HCT-116
RPMI-8226 = tested on: RPMI-8226
MCF7 = tested on: MCF7
NCI-H23 = tested on: NCI-H23
BT-549 = tested on: BT-549
RXF 393 = tested on: RXF 393
MDA-MB-231 = tested on: MDA-MB-231
CAKI-1 = tested on: CAKI-1
UO-31 = tested on: UO-31
NCI/ADR-RES = tested on: NCI/ADR-RES
NCI-H522 = tested on: NCI-H522
HCC 2998 = tested on: HCC 2998
M14 = tested on: M14
SN12C = tested on: SN12C

COc1cccc2c1C(=O)c1c(O)c3c(c(O)c1C2=O)C[C@H](O)C[C@@H]3OC1CC(N)C(O)C(C)O1 (stereo not given in full)
GI50 (HCT-15): 11.5 µM
GI50 (ACHN): 1.17 µM (inactive)
GI50 (IGROV-1): 1.57 µM (inactive)
GI50 (SK-MEL-2): 2.02 µM (inactive)
GI50 (MDA-MB-435): 1.82 µM (inactive)
GI50 (HCT-116): 0.245 µM (active)
GI50 (RPMI-8226): 1.22 µM (inactive)
GI50 (MCF7): < 0.01 µM (active)
GI50 (NCI-H23): 1.06 µM (active)
GI50 (BT-549): 3.04 µM (inactive)
GI50 (RXF 393): 6.58 µM (inactive)
GI50 (MDA-MB-231): 1.78 µM (inactive)
GI50 (CAKI-1): 1.08 µM (active)
GI50 (UO-31): 2.24 µM (inactive)
GI50 (NCI/ADR-RES): 13.4 µM (inactive)
GI50 (NCI-H522): 1.57 µM (inactive)

CC(=O)C(C(=O)C(C)(C)C)C(=O)C(C)(C)C
GI50 (HCT-15): > 100 µM
GI50 (ACHN): > 100 µM (inactive)
GI50 (HCC 2998): > 100 µM (inactive)
GI50 (SK-MEL-2): > 100 µM (inactive)
GI50 (M14): > 100 µM (inactive)
GI50 (MDA-MB-435): > 100 µM (inactive)
GI50 (HCT-116): > 100 µM (inactive)
GI50 (RPMI-8226): > 100 µM (inactive)
GI50 (MCF7): > 100 µM (inactive)
GI50 (SN12C): > 100 µM (inactive)
GI50 (BT-549): > 100 µM (inactive)
GI50 (RXF 393): > 100 µM (inactive)
GI50 (MDA-MB-231): > 100 µM (inactive)
GI50 (CAKI-1): > 100 µM (inactive)
GI50 (UO-31): > 100 µM (inactive)
GI50 (NCI/ADR-RES): > 100 µM (inactive)
GI50 (NCI-H522): > 100 µM (inactive)

Nc1cccnc1NCC1(CO)CCCC1
GI50 (HCT-15): > 100 µM
GI50 (ACHN): > 100 µM (inactive)
GI50 (IGROV-1): > 100 µM (inactive)
GI50 (HCC 2998): > 100 µM (inactive)
GI50 (SK-MEL-2): > 100 µM (inactive)
GI50 (MDA-MB-435): > 100 µM (inactive)
GI50 (HCT-116): > 100 µM (inactive)
GI50 (RPMI-8226): > 100 µM (inactive)
GI50 (MCF7): > 100 µM (inactive)
GI50 (NCI-H23): > 100 µM (inactive)
GI50 (SN12C): > 100 µM (inactive)
GI50 (BT-549): > 100 µM (inactive)
GI50 (RXF 393): > 100 µM (inactive)
GI50 (MDA-MB-231): > 100 µM (inactive)
GI50 (CAKI-1): > 100 µM (inactive)
GI50 (UO-31): > 100 µM (inactive)
GI50 (NCI/ADR-RES): > 100 µM (inactive)
GI50 (NCI-H522): > 100 µM (inactive)

COc1cc2c3c(c1)c1cc(OC)c(OC)cc1c[n+]3CC2
GI50 (HCT-15): > 50 µM
GI50 (ACHN): > 50 µM (inactive)
GI50 (IGROV-1): 17.5 µM (inactive)
GI50 (SK-MEL-2): 31.8 µM (inactive)
GI50 (M14): > 50 µM (inactive)
GI50 (MDA-MB-435): 25.8 µM (inactive)
GI50 (HCT-116): 8.36 µM (inactive)
GI50 (RPMI-8226): 18.7 µM (inactive)
GI50 (MCF7): 15.8 µM (inactive)
GI50 (NCI-H23): 7.29 µM (inactive)
GI50 (SN12C): 1.53 µM (inactive)
GI50 (BT-549): 2.63 µM (inactive)
GI50 (RXF 393): 27.9 µM (inactive)
GI50 (MDA-MB-231): > 50 µM (inactive)
GI50 (CAKI-1): 30.6 µM (inactive)
GI50 (UO-31): > 100 µM (inactive)
GI50 (NCI/ADR-RES): > 50 µM (inactive)
GI50 (NCI-H522): 0.927 µM (active)

COc1cc(S(=O)(=O)Nc2nc(-c3ccc(/N=C/c4ccccc4O)cc3)cs2)ccc1Cl
GI50 (HCT-15): 31.6 µM
GI50 (ACHN): 41.7 µM (inactive)
GI50 (IGROV-1): 31.4 µM (inactive)
GI50 (HCC 2998): 45.5 µM (inactive)
GI50 (SK-MEL-2): 34.7 µM (inactive)
GI50 (M14): 30.1 µM (inactive)
GI50 (MDA-MB-435): 54.5 µM (inactive)
GI50 (HCT-116): 29.4 µM (inactive)
GI50 (MCF7): 27.8 µM (inactive)
GI50 (NCI-H23): 36.3 µM (inactive)
GI50 (SN12C): 17.9 µM (inactive)
GI50 (BT-549): 37.4 µM (inactive)
GI50 (RXF 393): 34.3 µM (inactive)
GI50 (MDA-MB-231): 36.5 µM (inactive)
GI50 (CAKI-1): 60.4 µM (inactive)
GI50 (UO-31): 44.2 µM (inactive)
GI50 (NCI/ADR-RES): 50.5 µM (inactive)
GI50 (NCI-H522): 33.7 µM (inactive)

CC(C)(C)c1ccc(-n2c3nc(=O)n(-c4ccccc4C(F)(F)F)c(=O)c-3cc3ccccc32)cc1
GI50 (HCT-15): 12.3 µM
GI50 (ACHN): 15.8 µM (inactive)
GI50 (IGROV-1): 29.1 µM (inactive)
GI50 (HCC 2998): 14.2 µM (inactive)
GI50 (SK-MEL-2): 14.6 µM (inactive)
GI50 (M14): 14.4 µM (inactive)
GI50 (MDA-MB-435): 15.6 µM (inactive)
GI50 (HCT-116): 10.5 µM (inactive)
GI50 (MCF7): 15.6 µM (inactive)
GI50 (NCI-H23): 32.3 µM (inactive)
GI50 (SN12C): 20.2 µM (inactive)
GI50 (BT-549): 24 µM (inactive)
GI50 (RXF 393): 24.2 µM (inactive)
GI50 (MDA-MB-231): 23.8 µM (inactive)
GI50 (CAKI-1): 25.1 µM (inactive)
GI50 (UO-31): 20.7 µM (inactive)
GI50 (NCI/ADR-RES): 23.4 µM (inactive)
GI50 (NCI-H522): 16.9 µM (inactive)

Nc1cccc(Nc2nc3ccccc3nc2NS(=O)(=O)c2ccccc2)c1
GI50 (HCT-15): 25.6 µM
GI50 (ACHN): 27.5 µM (inactive)
GI50 (IGROV-1): 24.5 µM (inactive)
GI50 (HCC 2998): 15.9 µM (inactive)
GI50 (SK-MEL-2): 15.7 µM (inactive)
GI50 (M14): 26.2 µM (inactive)
GI50 (MDA-MB-435): 23.6 µM (inactive)
GI50 (HCT-116): 17.3 µM (inactive)
GI50 (RPMI-8226): 16.7 µM (inactive)
GI50 (MCF7): 33.6 µM (inactive)
GI50 (NCI-H23): 12.9 µM (inactive)
GI50 (SN12C): 26 µM (inactive)
GI50 (BT-549): 6.65 µM (inactive)
GI50 (RXF 393): 18.3 µM (inactive)
GI50 (MDA-MB-231): 14.8 µM (inactive)
GI50 (CAKI-1): 27 µM (inactive)
GI50 (UO-31): 16 µM (inactive)
GI50 (NCI/ADR-RES): 27.3 µM (inactive)

O=C1N(CN2CCOCC2)CN(CN2CCOCC2)C(=O)N1Cc1ccc(-c2ccc(CN3C(=O)N(CN4CCOCC4)CN(CN4CCOCC4)C3=O)cc2)cc1
GI50 (HCT-15): 9.55 µM
GI50 (ACHN): 27.4 µM (inactive)
GI50 (IGROV-1): 11.6 µM (inactive)
GI50 (HCC 2998): 11 µM (inactive)
GI50 (SK-MEL-2): 6.55 µM (inactive)
GI50 (M14): 5.53 µM (inactive)
GI50 (MDA-MB-435): 2.63 µM (inactive)
GI50 (HCT-116): 7.6 µM (inactive)
GI50 (MCF7): 4 µM (inactive)
GI50 (NCI-H23): 10.6 µM (inactive)
GI50 (BT-549): 5.87 µM (inactive)
GI50 (RXF 393): 10.8 µM (inactive)
GI50 (MDA-MB-231): 26.5 µM (inactive)
GI50 (CAKI-1): 14.2 µM (inactive)
GI50 (UO-31): 19.4 µM (inactive)
GI50 (NCI/ADR-RES): 17.3 µM (inactive)
GI50 (NCI-H522): 12.2 µM (inactive)
